Read-outs that look alike come from different tables or passages of the source.

One test concerns MKN45 cells. Put plainly: MKN45 cell proliferation assay (Cell-Titer-Glo, 120 h). Type of test: cell-based. The conditions noted are these: for EC50: Homo sapiens, MKN-45, 120 h, Cell-Titer-Glo, read-out: MKN45 Cell Prolif. 120 hr (EC50); for MKN45 Cell Prolif. 120 hr (Ymin-Obs): minimal percent of DMSO control observed in the concentrations tested. In short, it runs like this: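 Growth inhibition was read as blank-corrected Cell-Titer-Glo luminescence expressed as percent DMSO control after 120 h at 37 C, 400 cells/well. Compounds tested in triplicate as 10-point half-log series from 1 or 10 uM, 0.1% DMSO; four-parameter fit gave EC50, and lowest observed percent control was reported as Ymin-obs.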

The next test has as its target T1, WEE1 (Homo sapiens, UniProt P30291+Q96SW2).
T1 construct: C-terminal ePL-tagged (DiscoverX, Fremont, CA) full-length WEE1 expression construct; expressed in transfected cells; host or cells: LentiX-HEK293T (Invitrogen), lentiviral transduction; co-expressing GSPT1-GN (G576N, lacking the first 158 amino acids)
Kind of test: WEE1-ePL degradation assay (LentiX-WEE1-ePL-GSPT1-ND cells, InCELL Hunter luminescence, 4 h). The conditions noted are these: 293T-LentiX WEE1-ePL cells; for DC50: read-out: 293T-LentiX WEE1-ePL Degradation 4 hr (EC50). Type of test: cell-based. In short, it runs like this:
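LentiX-HEK293T cells stably expressing C-terminally ePL-tagged full-length WEE1 were treated with compounds in a 10-point, 3-fold dilution series starting at 1 uM or 10 uM for 4 h at 37 °C. Remaining WEE1-ePL was detected by InCELL Hunter luminescence, and EC50, Ymin and Ymax came from a four-parameter logistic fit against DMSO control.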

Setting [1] is: lower limit of the fit (Ymin=0 luciferase inhibitor, Ymax DMSO control).

As usually defined, the EC50 is the concentration needed to bring the measured effect to its halfway point. As for `O=C1CC[C@H](N2Cc3cc(O[C@H]4CCN(Cc5cc(F)c6nc(C7CCOCC7)ncc6c5)C4)ccc3C2=O)C(=O)N1` [(3S)-3-(5-{[(3S)-1-{[8-fluoro-2-(oxan-4-yl)quinazolin-6-yl]methyl}pyrrolidin-3-yl]oxy}-1-oxo-2,3-dihydro-1H-isoindol-2-yl)piperidine-2,6-dione], in the test on MKN45 cells, the EC50 is 13.4 nM and the “MKN45 Cell Prolif. 120 hr (Ymin-Obs)” value came out at 9.241. Moreover, at WEE1 (setting [1]), the “293T-LentiX WEE1-ePL Degradation 4 hr (Ymin)” value stood at 33.6. In addition, the DC50 at WEE1 worked out at 27.6 nM.

As for `O=C1CC[C@H](N2Cc3cc(O[C@H]4CCN(Cc5cc(F)c6nc(C7CCOCC7)ccc6c5)C4)ccc3C2=O)C(=O)N1` [(3S)-3-(5-{[(3S)-1-{[8-fluoro-2-(oxan-4-yl)quinolin-6-yl]methyl}pyrrolidin-3-yl]oxy}-1-oxo-2,3-dihydro-1H-isoindol-2-yl)piperidine-2,6-dione], the concentration for a half-maximal effect (EC50) in the test with MKN45 cells (growth inhibition) is 2.29 nM. Moreover, the “MKN45 Cell Prolif. 120 hr (Ymin-Obs)” value with MKN45 cells amounted to 8.43. For the same molecule, at WEE1 (lower limit of the fit (0 = luciferase inhibitor, Ymax = DMSO control)), the “293T-LentiX WEE1-ePL Degradation 4 hr (Ymin)” value was 29.02. Also, on WEE1, the DC50 is 1.45 nM.

As to `C[C@@H]1CN(Cc2ccc3nc([C@@H]4CCOC(C)(C)C4)ccc3c2)C[C@H]1Oc1ccc2c(c1)CN([C@H]1CCC(=O)NC1=O)C2=O` [(3S)-3-(5-{[(3S,4R)-1-({2-[(4R)-2,2-dimethyloxan-4-yl]quinolin-6-yl}methyl)-4-methylpyrrolidin-3-yl]oxy}-1-oxo-2,3-dihydro-1H-isoindol-2-yl)piperidine-2,6-dione], in the test with MKN45 cells, the 50% effective concentration (EC50) is 0.424 nM and the “MKN45 Cell Prolif. 120 hr (Ymin-Obs)” value was 8.113. Moreover, at WEE1 (setting [1]), the “293T-LentiX WEE1-ePL Degradation 4 hr (Ymin)” value is listed as 24.64. Also, the DC50 at WEE1 was 1.15 nM.

As for `C[C@@H]1CN(Cc2ccc3nc([C@H]4CCOC(C)(C)C4)ccc3c2)C[C@H]1Oc1ccc2c(c1)CN([C@H]1CCC(=O)NC1=O)C2=O` [(3S)-3-(5-{[(3S,4R)-1-({2-[(4S)-2,2-dimethyloxan-4-yl]quinolin-6-yl}methyl)-4-methylpyrrolidin-3-yl]oxy}-1-oxo-2,3-dihydro-1H-isoindol-2-yl)piperidine-2,6-dione], in the test with MKN45 cells, the EC50 is 1.44 nM and the “MKN45 Cell Prolif. 120 hr (Ymin-Obs)” value is 9.434. For the same molecule, at WEE1 (setting [1]), the “293T-LentiX WEE1-ePL Degradation 4 hr (Ymin)” value is reported as 24.63. Also, the DC50 at WEE1 turned out to be 3.51 nM.

For `C[C@@H]1CN(Cc2cc(F)c3nc([C@H]4CCOC4)ccc3c2)C[C@H]1Oc1ccc2c(c1)CN([C@H]1CCC(=O)NC1=O)C2=O` [(3S)-3-(5-{[(3S,4R)-1-({8-fluoro-2-[(3R)-oxolan-3-yl]quinolin-6-yl}methyl)-4-methylpyrrolidin-3-yl]oxy}-1-oxo-2,3-dihydro-1H-isoindol-2-yl)piperidine-2,6-dione], in the test on MKN45 cells, the 50% effective concentration (EC50) stood at 0.955 nM and the “MKN45 Cell Prolif. 120 hr (Ymin-Obs)” value is on record as 7.865. For the same molecule, the “293T-LentiX WEE1-ePL Degradation 4 hr (Ymin)” value on WEE1 (setting [1]) came out at 26.61. Further, the DC50 on WEE1 came to 0.985 nM.

For `C[C@@H]1CN(Cc2cc(F)c3nc([C@@H]4CCOC4)ccc3c2)C[C@H]1Oc1ccc2c(c1)CN([C@H]1CCC(=O)NC1=O)C2=O` [(3S)-3-(5-{[(3S,4R)-1-({8-fluoro-2-[(3S)-oxolan-3-yl]quinolin-6-yl}methyl)-4-methylpyrrolidin-3-yl]oxy}-1-oxo-2,3-dihydro-1H-isoindol-2-yl)piperidine-2,6-dione], in the test with MKN45 cells, the 50% effective concentration (EC50) was 1.13 nM and the “MKN45 Cell Prolif. 120 hr (Ymin-Obs)” value came out at 7.979. For the same molecule, the “293T-LentiX WEE1-ePL Degradation 4 hr (Ymin)” value on WEE1 (setting [1]) amounted to 26.17. Also, at WEE1, the DC50 came out at 1.41 nM.

As for `C[C@@H]1CN(Cc2cc(F)c3nc(C4CCOCC4)ccc3c2)C[C@H]1Oc1ccc2c(c1)CN([C@H]1CCC(=O)NC1=O)C2=O` [(3S)-3-(5-{[(3S,4R)-1-{[8-fluoro-2-(oxan-4-yl)quinolin-6-yl]methyl}-4-methylpyrrolidin-3-yl]oxy}-1-oxo-2,3-dihydro-1H-isoindol-2-yl)piperidine-2,6-dione], in the test on MKN45 cells, the EC50 worked out at 1.42 nM and the “MKN45 Cell Prolif. 120 hr (Ymin-Obs)” value was found to be 9.05. Moreover, the “293T-LentiX WEE1-ePL Degradation 4 hr (Ymin)” value on WEE1 (setting [1]) is 33.52. The DC50 at WEE1 was 1.05 nM.

As for `COC[C@@H]1CN(Cc2ccc3nc([C@@H]4CCOC(C)(C)C4)ccc3c2)C[C@H]1Oc1ccc2c(c1)CN([C@H]1CCC(=O)NC1=O)C2=O` [(3S)-3-(5-{[(3S,4S)-1-({2-[(4R)-2,2-dimethyloxan-4-yl]quinolin-6-yl}methyl)-4-(methoxymethyl)pyrrolidin-3-yl]oxy}-1-oxo-2,3-dihydro-1H-isoindol-2-yl)piperidine-2,6-dione], in the test on MKN45 cells, the EC50 was 0.247 nM and the “MKN45 Cell Prolif. 120 hr (Ymin-Obs)” value worked out at 7.692. Moreover, on WEE1 (setting [1]), the “293T-LentiX WEE1-ePL Degradation 4 hr (Ymin)” value is listed as 25.48. The DC50 on WEE1 was found to be 0.726 nM.

Consider `COC[C@@H]1CN(Cc2cc(F)c3nc([C@H]4CCOC(C)(C)C4)ccc3c2)C[C@H]1Oc1ccc2c(c1)CN([C@H]1CCC(=O)NC1=O)C2=O` [(3S)-3-(5-{[(3S,4S)-1-({2-[(4S)-2,2-dimethyloxan-4-yl]-8-fluoroquinolin-6-yl}methyl)-4-(methoxymethyl)pyrrolidin-3-yl]oxy}-1-oxo-2,3-dihydro-1H-isoindol-2-yl)piperidine-2,6-dione], for which, in the test with MKN45 cells, the EC50 stood at 0.638 nM and the “MKN45 Cell Prolif. 120 hr (Ymin-Obs)” value is recorded as 8.947. On WEE1 (setting [1]), the “293T-LentiX WEE1-ePL Degradation 4 hr (Ymin)” value was 25.19. Further, the DC50 on WEE1 was 1.2 nM.

In the case of `COC[C@@H]1CN(Cc2ccc3nc([C@H]4CCOC(C)(C)C4)ccc3c2)C[C@H]1Oc1ccc2c(c1)CN([C@H]1CCC(=O)NC1=O)C2=O` [(3S)-3-(5-{[(3S,4S)-1-({2-[(4S)-2,2-dimethyloxan-4-yl]quinolin-6-yl}methyl)-4-(methoxymethyl)pyrrolidin-3-yl]oxy}-1-oxo-2,3-dihydro-1H-isoindol-2-yl)piperidine-2,6-dione], in the test with MKN45 cells, the EC50 was 0.558 nM and the “MKN45 Cell Prolif. 120 hr (Ymin-Obs)” value is 8.285. For the same molecule, at WEE1 (setting [1]), the “293T-LentiX WEE1-ePL Degradation 4 hr (Ymin)” value worked out at 25.45. Also, the DC50 at WEE1 turned out to be 1.25 nM.

In the case of `COC[C@@H]1CN(Cc2ccc3nc(C4CCN(C(C)=O)CC4)ncc3c2)C[C@H]1Oc1ccc2c(c1)CN([C@H]1CCC(=O)NC1=O)C2=O` [(3S)-3-(5-{[(3S,4S)-1-{[2-(1-acetylpiperidin-4-yl)quinazolin-6-yl]methyl}-4-(methoxymethyl)pyrrolidin-3-yl]oxy}-1-oxo-2,3-dihydro-1H-isoindol-2-yl)piperidine-2,6-dione], in the test with MKN45 cells, the EC50 was 3.54 nM and the “MKN45 Cell Prolif. 120 hr (Ymin-Obs)” value is given as 9.28. Also, at WEE1 (setting [1]), the “293T-LentiX WEE1-ePL Degradation 4 hr (Ymin)” value is on record as 26.93. In addition, the DC50 on WEE1 amounted to 11.9 nM.

For the molecule `COC[C@@H]1CN(Cc2ccc3nc(N4CCN(C(C)=O)CC4)ccc3c2)C[C@H]1Oc1ccc2c(c1)CN([C@H]1CCC(=O)NC1=O)C2=O` [(3S)-3-(5-{[(3S,4S)-1-{[2-(4-acetylpiperazin-1-yl)quinolin-6-yl]methyl}-4-(methoxymethyl)pyrrolidin-3-yl]oxy}-1-oxo-2,3-dihydro-1H-isoindol-2-yl)piperidine-2,6-dione], in the test with MKN45 cells, the half-maximal effective concentration (EC50) is 1.12 nM and the “MKN45 Cell Prolif. 120 hr (Ymin-Obs)” value is recorded as 8.785. For the same molecule, the “293T-LentiX WEE1-ePL Degradation 4 hr (Ymin)” value on WEE1 (setting [1]) worked out at 27.27. Also, the DC50 on WEE1 came out at 1.41 nM.

Consider `COC[C@@H]1CN(Cc2ccc3nc(N4CCOCC4)ncc3c2)C[C@H]1Oc1ccc2c(c1)CN([C@H]1CCC(=O)NC1=O)C2=O` [(3S)-3-(5-{[(3S,4S)-4-(methoxymethyl)-1-{[2-(morpholin-4-yl)quinazolin-6-yl]methyl}pyrrolidin-3-yl]oxy}-1-oxo-2,3-dihydro-1H-isoindol-2-yl)piperidine-2,6-dione], for which, in the test on MKN45 cells, the EC50 came to 1.64 nM and the “MKN45 Cell Prolif. 120 hr (Ymin-Obs)” value is 8.574. In addition, the “293T-LentiX WEE1-ePL Degradation 4 hr (Ymin)” value on WEE1 (setting [1]) is 25.61. Moreover, at WEE1, the DC50 turned out to be 5.4 nM.

(Values after patent US20240067632A1, “WEE1 Degrading Compounds and Uses Thereof” (Bristol-Myers Squibb Company, priority 2022, published 2024).)
